Measured values published in the NIST ThermoML archive (doi:10.1021/je049762q).
Numbers after ± are expanded uncertainties.

Legend:
[1] = Molar enthalpy of transition or fusion

Structure (SMILES)	Molar enthalpy of transition or fusion ([1]; Crystal) [kcal/mol]	Triple point temperature (Crystal) [K]	Molar enthalpy of transition or fusion ([1]; Crystal 1) [kcal/mol]	Molar enthalpy of transition or fusion ([1]; Crystal 2) [kcal/mol]	Molar enthalpy of transition or fusion ([1]; Crystal 3) [kcal/mol]	Triple point temperature (Crystal 1) [K]	Triple point temperature (Crystal 2) [K]	Triple point temperature (Crystal 3) [K]
Clc1cc(Cl)cc(Cl)c1 [1,3,5-trichlorobenzene]	4.196 ± 0.0215	335.92 ± 0.09	–	–	–	–	–	–
Brc1ccc(Br)cc1 [1,4-dibromobenzene]	4.873 ± 0.0158	360.48 ± 0.09	–	–	–	–	–	–
Clc1ccc(Cl)cc1 [1,4-dichlorobenzene]	–	–	4.28 ± 0.0153	0.0433 ± 0.0122	0.296 ± 0.0122	326.24 ± 0.09	306 ± 2	275 ± 0.4
Brc1cc(Br)cc(Br)c1 [1,3,5-tribromobenzene]	5.191 ± 0.0122	394.96 ± 0.16	–	–	–	–	–	–
